Test results published in patent US20110059948A1, “QUINOLINE, NAPHTHALENE AND CONFORMATIONALLY CONSTRAINED QUINOLINE OR NAPHTHALENE DERIVATIVES AS ANTI-MYCOBACTERIAL AGENTS” (priority 2008, published 2011).

Experiments:
[1] = tested on: clinical isolate MDR (BTB 08-072); assay: microbe, parasite or virus in culture; type: cell-based, Mycobacterium tuberculosis; details: for MIC against MDR-TB (BTB 08-072), strain resistant to all front line drugs: agar dilution, Middlebrook 7H10; for MIC: Mycobacterium tuberculosis, read-out: MIC against MDR-TB (BTB 08-072), strain resistant to all front line drugs
[2] = tested on: clinical isolates resistant to one or more standard antitubercular drugs (MDR-TB strains); assay: microbe, parasite or virus in culture; type: cell-based, Mycobacterium tuberculosis; details: for MIC M. tuberculosis Resistant (n = 10): clinical isolates, n = 10 strains tested

| Compound | MIC against MDR-TB (BTB 08-072), strain resistant to all front line drugs [1] | MIC M. tuberculosis Resistant (n = 10) [2] | MIC [1] | MIC ([2]; Mycobacterium tuberculosis, read-out: MIC M. tuberculosis Resistant (n = 10)) |
| --- | --- | --- | --- | --- |
| CC(O)c1cc(F)ccc1Oc1nc2ccc(NC(=O)Nc3cccc([N+](=O)[O-])c3)cc2cc1Cc1ccccc1 (centres unmarked) [Example 31] | >6.25 µg/mL | <6.25 µg/mL | – | – |
| CO[C@H]1/C=C/O[C@@]2(C)Oc3c(C)c(O)c4c(O)c(c(/C=N/N5CCN(C)CC5)c(O)c4c3C2=O)NC(=O)/C(C)=C\C=C\[C@H](C)[C@H](O)[C@@H](C)[C@@H](O)[C@@H](C)[C@H](OC(C)=O)[C@@H]1C [Refampin, Rifampicin, reference compound] | – | – | > 16 µg/mL | – |
| ON=C1c2ccccc2-c2c1c(N1CCN(c3ccccn3)CC1)nc1ccc(Br)cc21 [Example 134] | >6.25 µg/mL | <6.25 µg/mL | – | – |
| CC(c1cc(F)ccc1Oc1nc2ccc(-n3cc(-c4ccccc4)nn3)cc2cc1Cc1ccccc1)n1ccnc1 (centres unmarked) [Example 23] | >6.25 µg/mL | <6.25 µg/mL | – | – |
| NNC(=O)c1ccncc1 [Isoniazid, reference compound] | – | – | > 16 µg/mL | > 16 µg/mL |
| COc1cccc(NC(=O)Nc2ccc3nc(Oc4ccc(F)cc4C(C)O)c(Cc4ccccc4)cc3c2)c1 (centres unmarked) [Example 26] | >4.0 µg/mL | <4.0 µg/mL | – | – |
